According to ChEMBL document CHEMBL1130309, “Syntheses and anticancer activity of ribonucleoside analogues containing thio-substituted five-membered heterocyclic base” (Bioorg Med Chem Lett, 1997):

Assays:
SNB-19 [1] = assay: Compound was evaluated in vitro against NCI CNS cancer cell line SNB19; Not active; format: functional, cell-based, Homo sapiens
SNB-19 [2] = assay: Compound was evaluated in vitro against NCI CNS cancer cell line SNB19; format: functional, cell-based; conditions: Homo sapiens

Row | Compound | IC50 (SNB-19 [1]) | IC50 (SNB-19 [2])
1 | Nc1nn([C@@H]2O[C@H](COCc3ccccc3)[C@@H](OCc3ccccc3)[C@H]2OCc2ccccc2)c(=S)s1 | Not Active | –
2 | Nc1nn(C2O[C@H](CO)[C@@H](O)[C@H]2O)c(=S)s1 (some centres not stated) | – | 39.4 nM
